{
  "source": "the kinase profiling compilation of Christmann-Franck et al. (2016)",
  "assay_in_all_cases": "radiometric filter-binding kinase assay, Kinase HotSpot",
  "details_in_all_cases": "compound 0.5 µM; ATP 10 µM",
  "key": {"[1]": {"biological_target": "TGFBR1 (human) (UniProt P36897)"}, "[2]": {"biological_target": "TXK (human) (UniProt P42681)"}, "[3]": {"biological_target": "AKT3 (human) (UniProt Q9Y243)"}, "[4]": {"biological_target": "RAF1 (human) (UniProt P04049)"}, "[5]": {"biological_target": "RPS6KB1 (human) (UniProt P23443)"}, "[6]": {"biological_target": "CDK5 CDK5R1 p35 (human) (UniProt Q00535+Q15078)"}, "[7]": {"biological_target": "CDK9 CCNK (human) (UniProt O75909+P50750)"}, "[8]": {"biological_target": "PKN1 (human) (UniProt Q16512)", "sequence (Q16512 whole entry, looked up)": "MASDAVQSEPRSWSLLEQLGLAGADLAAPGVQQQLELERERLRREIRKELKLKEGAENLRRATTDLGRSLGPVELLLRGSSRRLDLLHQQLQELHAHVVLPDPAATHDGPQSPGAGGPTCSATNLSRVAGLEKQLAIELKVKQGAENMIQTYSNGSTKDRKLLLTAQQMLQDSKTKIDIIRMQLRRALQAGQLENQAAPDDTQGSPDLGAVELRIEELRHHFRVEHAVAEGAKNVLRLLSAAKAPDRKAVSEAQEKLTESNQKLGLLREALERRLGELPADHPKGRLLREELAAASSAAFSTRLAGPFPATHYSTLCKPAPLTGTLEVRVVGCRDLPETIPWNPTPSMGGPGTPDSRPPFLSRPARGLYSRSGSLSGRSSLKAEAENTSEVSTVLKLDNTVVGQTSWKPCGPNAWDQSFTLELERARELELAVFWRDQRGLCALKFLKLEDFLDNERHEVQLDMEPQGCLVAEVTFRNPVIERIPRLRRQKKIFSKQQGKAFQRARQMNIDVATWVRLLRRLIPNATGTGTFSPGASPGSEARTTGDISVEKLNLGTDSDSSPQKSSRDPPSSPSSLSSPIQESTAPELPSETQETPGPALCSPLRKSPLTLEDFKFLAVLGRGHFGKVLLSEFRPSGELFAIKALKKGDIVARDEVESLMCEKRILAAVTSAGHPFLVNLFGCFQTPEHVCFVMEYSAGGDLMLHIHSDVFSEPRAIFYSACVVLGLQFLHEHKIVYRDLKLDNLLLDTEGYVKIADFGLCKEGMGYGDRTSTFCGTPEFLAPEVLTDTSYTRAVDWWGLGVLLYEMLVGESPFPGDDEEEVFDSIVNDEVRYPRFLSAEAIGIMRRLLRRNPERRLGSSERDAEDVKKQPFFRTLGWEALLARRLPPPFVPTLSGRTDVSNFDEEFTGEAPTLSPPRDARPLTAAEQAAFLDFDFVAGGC"}, "[9]": {"biological_target": "MAP3K7 TAB1 (human) (UniProt O43318+Q15750)"}, "[10]": {"biological_target": "FES (human) (UniProt P07332)"}, "[11]": {"biological_target": "PHKG1 (human) (UniProt Q16816)"}, "[12]": {"biological_target": "PRKCZ (human) (UniProt Q05513)"}, "[13]": {"biological_target": "CDK1 CCNB1 (human) (UniProt P06493+P14635)"}, "[14]": {"biological_target": "CAMK2D (human) (UniProt Q13557)", "sequence (Q13557 whole entry, looked up)": "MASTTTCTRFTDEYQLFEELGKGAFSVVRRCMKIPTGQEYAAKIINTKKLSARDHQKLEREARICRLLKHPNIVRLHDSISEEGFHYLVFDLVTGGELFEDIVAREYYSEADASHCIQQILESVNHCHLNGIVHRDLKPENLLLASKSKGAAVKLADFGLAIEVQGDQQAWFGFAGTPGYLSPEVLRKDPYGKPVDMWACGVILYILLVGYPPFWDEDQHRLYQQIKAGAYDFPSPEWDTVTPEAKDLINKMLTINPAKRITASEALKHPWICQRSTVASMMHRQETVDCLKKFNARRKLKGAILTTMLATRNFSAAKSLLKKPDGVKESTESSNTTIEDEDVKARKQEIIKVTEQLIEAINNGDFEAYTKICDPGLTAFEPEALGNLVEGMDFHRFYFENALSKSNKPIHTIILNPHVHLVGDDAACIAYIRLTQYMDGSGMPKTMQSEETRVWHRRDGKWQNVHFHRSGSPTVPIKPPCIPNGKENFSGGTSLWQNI"}, "[15]": {"biological_target": "STK4 (human) (UniProt Q13043)"}, "[16]": {"biological_target": "LTK (human) (UniProt P29376)"}, "[17]": {"biological_target": "STK33 (human) (UniProt Q9BYT3)"}, "[18]": {"biological_target": "MAP3K9 (human) (UniProt P80192)"}, "[19]": {"biological_target": "AXL (human) (UniProt P30530)"}, "[20]": {"biological_target": "CAMK1 (human) (UniProt Q14012)", "sequence (Q14012 whole entry, looked up)": "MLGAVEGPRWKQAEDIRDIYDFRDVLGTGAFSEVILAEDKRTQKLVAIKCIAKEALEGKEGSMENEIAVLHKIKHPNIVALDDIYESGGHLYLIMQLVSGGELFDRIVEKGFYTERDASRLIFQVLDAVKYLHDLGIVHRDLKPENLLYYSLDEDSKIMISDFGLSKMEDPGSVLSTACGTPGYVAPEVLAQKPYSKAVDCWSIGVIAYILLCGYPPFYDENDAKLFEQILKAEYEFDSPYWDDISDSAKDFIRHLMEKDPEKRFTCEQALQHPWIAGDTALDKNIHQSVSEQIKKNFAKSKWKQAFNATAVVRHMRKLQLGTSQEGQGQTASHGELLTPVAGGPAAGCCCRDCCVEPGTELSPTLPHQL"}, "[21]": {"biological_target": "IRAK4 (human) (UniProt Q9NWZ3)"}, "[22]": {"biological_target": "MAPK3 (human) (UniProt P27361)"}, "[23]": {"biological_target": "CAMK1G (human) (UniProt Q96NX5)"}, "[24]": {"biological_target": "AURKC (human) (UniProt Q9UQB9)"}, "[25]": {"biological_target": "STK17A (human) (UniProt Q9UEE5)", "sequence (Q9UEE5 whole entry, looked up)": "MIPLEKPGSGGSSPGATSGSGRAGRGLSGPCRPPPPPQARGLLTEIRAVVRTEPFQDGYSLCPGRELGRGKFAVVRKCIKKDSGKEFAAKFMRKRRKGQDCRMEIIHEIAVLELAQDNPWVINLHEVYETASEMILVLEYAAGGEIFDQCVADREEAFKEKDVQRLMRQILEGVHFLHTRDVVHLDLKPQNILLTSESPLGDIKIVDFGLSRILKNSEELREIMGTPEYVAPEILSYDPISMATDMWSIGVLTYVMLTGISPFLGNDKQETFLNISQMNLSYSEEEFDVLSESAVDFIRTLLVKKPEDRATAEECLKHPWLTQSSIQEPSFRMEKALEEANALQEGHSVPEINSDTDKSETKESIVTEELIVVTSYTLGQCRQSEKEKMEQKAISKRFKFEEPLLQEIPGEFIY"}, "[26]": {"biological_target": "DAPK1 (human) (UniProt P53355)", "sequence (P53355 whole entry, looked up)": "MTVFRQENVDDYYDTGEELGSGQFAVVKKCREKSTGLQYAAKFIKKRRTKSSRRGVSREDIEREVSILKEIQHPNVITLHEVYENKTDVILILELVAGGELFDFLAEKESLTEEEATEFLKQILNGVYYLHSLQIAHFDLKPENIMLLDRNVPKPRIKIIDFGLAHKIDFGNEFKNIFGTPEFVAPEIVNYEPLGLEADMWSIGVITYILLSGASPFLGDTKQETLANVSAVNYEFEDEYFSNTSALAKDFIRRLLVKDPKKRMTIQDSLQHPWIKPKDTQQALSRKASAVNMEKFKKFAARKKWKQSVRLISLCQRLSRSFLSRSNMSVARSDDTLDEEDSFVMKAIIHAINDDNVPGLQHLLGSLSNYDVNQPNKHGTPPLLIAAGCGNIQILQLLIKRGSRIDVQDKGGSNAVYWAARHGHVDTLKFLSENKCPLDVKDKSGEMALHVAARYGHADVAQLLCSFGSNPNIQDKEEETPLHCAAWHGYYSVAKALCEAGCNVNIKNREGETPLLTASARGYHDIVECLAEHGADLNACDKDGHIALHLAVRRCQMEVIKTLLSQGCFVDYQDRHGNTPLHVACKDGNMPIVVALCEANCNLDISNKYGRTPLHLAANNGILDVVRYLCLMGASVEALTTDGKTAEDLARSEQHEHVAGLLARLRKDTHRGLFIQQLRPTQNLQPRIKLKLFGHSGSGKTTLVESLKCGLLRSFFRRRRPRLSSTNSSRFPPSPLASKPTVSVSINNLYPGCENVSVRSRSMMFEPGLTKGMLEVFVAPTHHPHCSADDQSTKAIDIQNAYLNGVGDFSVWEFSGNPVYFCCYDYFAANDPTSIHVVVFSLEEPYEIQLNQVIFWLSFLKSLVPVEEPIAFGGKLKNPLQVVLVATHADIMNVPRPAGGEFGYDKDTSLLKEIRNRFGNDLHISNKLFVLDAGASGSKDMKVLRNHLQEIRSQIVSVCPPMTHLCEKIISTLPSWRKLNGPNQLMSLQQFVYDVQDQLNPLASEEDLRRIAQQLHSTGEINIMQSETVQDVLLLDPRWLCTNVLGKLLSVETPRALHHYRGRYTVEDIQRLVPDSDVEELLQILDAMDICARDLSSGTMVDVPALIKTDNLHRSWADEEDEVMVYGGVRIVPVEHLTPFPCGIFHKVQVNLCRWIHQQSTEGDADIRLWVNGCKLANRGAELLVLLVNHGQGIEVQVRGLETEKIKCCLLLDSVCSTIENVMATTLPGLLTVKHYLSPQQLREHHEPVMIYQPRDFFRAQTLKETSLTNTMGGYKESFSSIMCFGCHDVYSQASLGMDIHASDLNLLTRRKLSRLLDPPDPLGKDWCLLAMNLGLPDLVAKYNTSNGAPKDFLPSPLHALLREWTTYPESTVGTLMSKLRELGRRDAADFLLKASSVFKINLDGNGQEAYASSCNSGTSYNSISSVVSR"}, "[27]": {"biological_target": "DYRK2 (human) (UniProt Q92630)"}, "[28]": {"biological_target": "CSNK2A2 (human) (UniProt P19784)"}, "[29]": {"biological_target": "RPS6KA2 KD1 KD2 (human) (UniProt Q15349)"}, "[30]": {"biological_target": "MAPK1 (human) (UniProt P28482)"}, "[31]": {"biological_target": "RIPK2 (human) (UniProt O43353)", "sequence (O43353 whole entry, looked up)": "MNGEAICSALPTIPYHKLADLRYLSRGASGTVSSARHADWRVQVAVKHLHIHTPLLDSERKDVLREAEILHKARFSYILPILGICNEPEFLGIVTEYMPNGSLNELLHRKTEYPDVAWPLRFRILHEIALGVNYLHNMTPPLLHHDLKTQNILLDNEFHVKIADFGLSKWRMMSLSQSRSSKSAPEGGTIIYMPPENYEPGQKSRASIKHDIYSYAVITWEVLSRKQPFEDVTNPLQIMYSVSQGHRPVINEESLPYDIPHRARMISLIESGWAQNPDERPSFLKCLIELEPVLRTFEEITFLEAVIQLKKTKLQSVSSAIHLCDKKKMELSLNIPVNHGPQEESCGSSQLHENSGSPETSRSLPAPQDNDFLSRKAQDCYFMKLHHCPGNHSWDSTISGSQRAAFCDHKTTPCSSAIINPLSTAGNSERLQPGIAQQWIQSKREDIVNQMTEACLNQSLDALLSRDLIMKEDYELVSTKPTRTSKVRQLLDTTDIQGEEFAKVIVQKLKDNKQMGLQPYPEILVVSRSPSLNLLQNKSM"}, "[32]": {"biological_target": "CAMK2B (human) (UniProt Q13554)"}, "[33]": {"biological_target": "MAP4K4 (human) (UniProt O95819)"}, "[34]": {"biological_target": "MAP3K5 (human) (UniProt Q99683)"}, "[35]": {"biological_target": "EPHA4 (human) (UniProt P54764)"}, "[36]": {"biological_target": "CSK (human) (UniProt P41240)"}, "[37]": {"biological_target": "PIM2 (human) (UniProt Q9P1W9)"}, "[38]": {"biological_target": "TEK (human) (UniProt Q02763)"}, "[39]": {"biological_target": "PTK2 (human) (UniProt Q05397)"}, "[40]": {"biological_target": "CDK6 CCND1 (human) (UniProt Q00534+P24385)", "sequence (P24385 whole entry, looked up)": "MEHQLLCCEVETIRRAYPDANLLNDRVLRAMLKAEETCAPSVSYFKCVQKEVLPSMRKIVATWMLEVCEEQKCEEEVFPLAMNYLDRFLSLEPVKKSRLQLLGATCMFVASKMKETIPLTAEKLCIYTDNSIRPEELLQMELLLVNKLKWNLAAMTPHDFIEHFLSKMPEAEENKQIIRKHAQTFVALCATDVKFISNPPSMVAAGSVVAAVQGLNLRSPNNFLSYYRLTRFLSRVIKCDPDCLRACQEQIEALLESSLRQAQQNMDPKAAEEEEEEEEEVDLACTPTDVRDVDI", "sequence (Q00534 whole entry, looked up)": "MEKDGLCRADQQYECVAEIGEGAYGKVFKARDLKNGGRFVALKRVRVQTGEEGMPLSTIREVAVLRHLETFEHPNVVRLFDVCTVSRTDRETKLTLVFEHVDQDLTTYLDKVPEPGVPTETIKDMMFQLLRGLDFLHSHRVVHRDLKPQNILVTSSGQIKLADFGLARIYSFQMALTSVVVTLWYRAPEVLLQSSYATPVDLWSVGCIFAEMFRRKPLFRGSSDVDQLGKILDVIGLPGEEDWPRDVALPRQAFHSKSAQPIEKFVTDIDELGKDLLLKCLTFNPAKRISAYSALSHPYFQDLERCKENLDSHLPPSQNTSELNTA"}, "[41]": {"biological_target": "BRSK2 (human) (UniProt Q8IWQ3)"}},
  "data": [
    {"molecule": "CCc1nc(-c2ccc(OC)cc2)[nH]c1-c1ccncc1", "values": [
      {"measurement": "residual activity", "setting": "[1]", "result": 98.2, "unit": "%"},
      {"measurement": "residual activity", "setting": "[2]", "result": 100, "unit": "%"},
      {"measurement": "residual activity", "setting": "[3]", "result": 101, "unit": "%"},
      {"measurement": "residual activity", "setting": "[4]", "result": 93.4, "unit": "%"},
      {"measurement": "residual activity", "setting": "[5]", "result": 98.4, "unit": "%"},
      {"measurement": "residual activity", "setting": "[6]", "result": 100, "unit": "%"},
      {"measurement": "residual activity", "setting": "[7]", "result": 97.9, "unit": "%"},
      {"measurement": "residual activity", "setting": "[8]", "result": 97, "unit": "%"},
      {"measurement": "residual activity", "setting": "[9]", "result": 96.6, "unit": "%"},
      {"measurement": "residual activity", "setting": "[10]", "result": 100, "unit": "%"},
      {"measurement": "residual activity", "setting": "[11]", "result": 97, "unit": "%"},
      {"measurement": "residual activity", "setting": "[12]", "result": 107, "unit": "%"},
      {"measurement": "residual activity", "setting": "[13]", "result": 102, "unit": "%"},
      {"measurement": "residual activity", "setting": "[14]", "result": 96.4, "unit": "%"},
      {"measurement": "residual activity", "setting": "[15]", "result": 106, "unit": "%"},
      {"measurement": "residual activity", "setting": "[16]", "result": 106, "unit": "%"},
      {"measurement": "residual activity", "setting": "[17]", "result": 101, "unit": "%"},
      {"measurement": "residual activity", "setting": "[18]", "result": 88.1, "unit": "%"},
      {"measurement": "residual activity", "setting": "[19]", "result": 99.9, "unit": "%"},
      {"measurement": "residual activity", "setting": "[20]", "result": 108, "unit": "%"},
      {"measurement": "residual activity", "setting": "[21]", "result": 111, "unit": "%"},
      {"measurement": "residual activity", "setting": "[22]", "result": 99.9, "unit": "%"},
      {"measurement": "residual activity", "setting": "[23]", "result": 98, "unit": "%"},
      {"measurement": "residual activity", "setting": "[24]", "result": 97.4, "unit": "%"},
      {"measurement": "residual activity", "setting": "[25]", "result": 96.1, "unit": "%"},
      {"measurement": "residual activity", "setting": "[26]", "result": 97.4, "unit": "%"},
      {"measurement": "residual activity", "setting": "[27]", "result": 85.8, "unit": "%"},
      {"measurement": "residual activity", "setting": "[28]", "result": 95.3, "unit": "%"},
      {"measurement": "residual activity", "setting": "[29]", "result": 99.1, "unit": "%"},
      {"measurement": "residual activity", "setting": "[30]", "result": 97.2, "unit": "%"},
      {"measurement": "residual activity", "setting": "[31]", "result": 95, "unit": "%"},
      {"measurement": "residual activity", "setting": "[32]", "result": 97.1, "unit": "%"},
      {"measurement": "residual activity", "setting": "[33]", "result": 91.9, "unit": "%"},
      {"measurement": "residual activity", "setting": "[34]", "result": 105, "unit": "%"},
      {"measurement": "residual activity", "setting": "[35]", "result": 105, "unit": "%"},
      {"measurement": "residual activity", "setting": "[36]", "result": 101, "unit": "%"},
      {"measurement": "residual activity", "setting": "[37]", "result": 105, "unit": "%"},
      {"measurement": "residual activity", "setting": "[38]", "result": 99.1, "unit": "%"},
      {"measurement": "residual activity", "setting": "[39]", "result": 101, "unit": "%"},
      {"measurement": "residual activity", "setting": "[40]", "result": 101, "unit": "%"},
      {"measurement": "residual activity", "setting": "[41]", "result": 105, "unit": "%"}
    ]}
  ]
}
